ChEMBL document CHEMBL1139676, “Anti-atherosclerotic and anti-inflammatory activities of catecholic xanthones and flavonoids isolated from Cudrania tricuspidata” (Bioorg Med Chem Lett, 2006)
The source made the active and inactive calls. No cut-off for these calls is given here.

Assays:
[1] = biological target: T1, Sterol O-acyltransferase 2 (Homo sapiens, UniProt O75908); test: Inhibition of human ACAT2 expressed in Hi5 cells; set-up: species or system BTI-TN-5B1-4
T1 sequence (O75908 whole entry): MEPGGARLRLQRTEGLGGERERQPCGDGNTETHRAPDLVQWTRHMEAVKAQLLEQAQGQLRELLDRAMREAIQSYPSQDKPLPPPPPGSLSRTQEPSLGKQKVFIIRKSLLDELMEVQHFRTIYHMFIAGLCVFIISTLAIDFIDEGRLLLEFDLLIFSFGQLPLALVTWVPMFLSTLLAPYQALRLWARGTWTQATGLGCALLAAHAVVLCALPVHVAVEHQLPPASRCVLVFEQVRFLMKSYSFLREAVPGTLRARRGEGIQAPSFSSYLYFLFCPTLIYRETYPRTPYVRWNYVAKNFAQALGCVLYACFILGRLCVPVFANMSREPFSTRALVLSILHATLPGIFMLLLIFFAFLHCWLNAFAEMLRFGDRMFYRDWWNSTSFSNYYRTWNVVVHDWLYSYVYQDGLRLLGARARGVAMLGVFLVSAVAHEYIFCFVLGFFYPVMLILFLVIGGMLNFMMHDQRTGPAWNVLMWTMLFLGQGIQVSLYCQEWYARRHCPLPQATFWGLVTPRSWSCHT

[2] = system: RAW; test: Inhibition of LPS-induced NO production in mouse RAW 264.7 cells at 50 uM after 18 hrs; type: functional, cell-based
[3] = system: RAW; test: Inhibition of LPS-induced NO production in mouse RAW 264.7 cells after 18 hrs; type: functional, cell-based
[4] = system: RAW; test: Inhibition of LPS-induced iNOS protein expression in mouse RAW 264.7 cells at 5 uM; type: functional, cell-based
[5] = system: RAW; test: Effect on cell viability in mouse RAW 264.7 cells at 50 uM by MTT method; type: functional, cell-based
[6] = system: RAW; test: Inhibition of LPS-induced iNOS protein expression in mouse RAW 264.7 cells at 10 uM; type: functional, cell-based
[7] = system: RAW; test: Inhibition of LPS-induced iNOS protein expression in mouse RAW 264.7 cells at 20 uM; type: functional, cell-based
[8] = system: RAW; test: Inhibition of LPS-induced iNOS protein expression in mouse RAW 264.7 cells at 50 uM; type: functional, cell-based
[9] = biological target: T2, Sterol O-acyltransferase 1 (Homo sapiens, UniProt P35610); test: (§1) Inhibition of human ACAT1 expressed in Hi5 cells; set-up: species or system BTI-TN-5B1-4
T2 sequence (P35610 whole entry): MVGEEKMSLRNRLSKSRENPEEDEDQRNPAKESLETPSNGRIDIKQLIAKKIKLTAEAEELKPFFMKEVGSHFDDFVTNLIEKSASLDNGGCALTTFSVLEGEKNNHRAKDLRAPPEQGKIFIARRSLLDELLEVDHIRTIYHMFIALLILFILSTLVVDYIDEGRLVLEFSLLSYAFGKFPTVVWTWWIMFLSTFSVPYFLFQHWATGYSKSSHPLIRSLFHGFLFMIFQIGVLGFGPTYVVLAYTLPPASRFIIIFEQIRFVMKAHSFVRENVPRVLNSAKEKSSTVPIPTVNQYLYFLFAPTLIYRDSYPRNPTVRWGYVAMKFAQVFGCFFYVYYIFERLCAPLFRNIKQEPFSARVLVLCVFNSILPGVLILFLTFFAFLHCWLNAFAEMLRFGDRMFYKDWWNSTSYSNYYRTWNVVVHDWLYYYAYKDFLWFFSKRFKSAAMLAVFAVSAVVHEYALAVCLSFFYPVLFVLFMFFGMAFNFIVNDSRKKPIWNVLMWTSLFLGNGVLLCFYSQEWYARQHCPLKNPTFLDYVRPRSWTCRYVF

[10] = biological target: T3, Sterol O-acyltransferase 1 (Homo sapiens) (UniProt P35610); test: as §1; settings: BTI-TN-5B1-4
T3 sequence (whole entry): T2 sequence (P35610 whole entry)

[11] = system: RAW; test: Effect on cell viability in mouse RAW 264.7 cells at 80 uM by MTT method; type: functional, cell-based
[12] = system: Plasma; test: Antioxidant activity against human plasma LDL oxidation by TBARS assay; type: functional, cell-free

For `CC(C)=CCc1c(O)cc2c(c1O)C(=O)C[C@@H](c1cc3c(cc1O)OC(C)(C)C=C3)O2` [CUDRAFLAVANONE A], the IC50 [1] was 24.8 µM.
`C=CC(C)(C)c1c(O)c(CC=C(C)C)c2oc3cc(O)c(O)cc3c(=O)c2c1O` [MACLURAXANTHONE B] was tested, and the IC50 [1] was 112 µM.
`C=CC(C)(C)c1c(OC)cc(O)c2c(=O)c3c(CC=C(C)C)c(O)c(O)cc3oc12` [CUDRAXANTHONE D] gave an IC50 [1] of 75.2 µM.
`CC(C)=CCc1c(O)c(O)cc2c(=O)c3c(O)c4c(cc3oc12)OC(C)C4(C)C` (configuration not stated) [CUDRAXANTHONE M] was tested, and the IC50 [1] was 23.2 µM.
For `CC(C)(O)CCc1c(O)cc(O)c2c1O[C@H](c1cc3c(cc1O)OC(C)(C)C=C3)CC2=O`, the IC50 [1] was 44.8 µM, the Activity [2] was “Active” and the Activity [3] was “Active”. The Activity [4] was “Active”, the Activity [5] was “inactive” and the Activity [6] was “Active”. For the same compound, the Activity [7] was “Active” and the Activity [8] was “Active”.
Compound `C=CC(C)(C)c1c(O)cc(O)c2c(=O)c3cc(O)c4c(c3oc12)C=CC(C)(C)O4` has an IC50 [9] of 40 µM and an IC50 [1] of 28.8 µM.
For `CC(C)=CCc1c(-c2ccc(O)cc2O)oc2cc3c(c(O)c2c1=O)C=CC(C)(C)O3` [CUDRAFLAVONE B], the Activity [10] was “inactive”, the IC50 [1] was 41.6 µM and the Activity [3] was “Dose-dependent effect”. The Activity [4] was “Active”, the Activity [11] was “inactive” and the Activity [6] was “Active”. The Activity [7] was “Active” and the Activity [8] was “Active”.
`C=CC(C)(C)c1c(O)cc2oc3c(CC=C(C)C)c(O)c(O)cc3c(=O)c2c1O` [CUDRAXANTHONE L] was tested, and the IC50 [1] was 74.4 µM.
In the case of `CC(C)=CCc1cc([C@@H]2CC(=O)c3c(cc(O)c(CC=C(C)C)c3O)O2)c(O)cc1O`, the Activity [10] is reported as “inactive”, the IC50 [1] is reported as 89.6 µM and the Activity [2] is reported as “Active”. For the same compound, the Activity [3] was “Active”, the Activity [4] was “Active” and the Activity [11] was “inactive”. The Activity [6] was “Active”, the Activity [7] was “Active” and the Activity [8] was “Active”.
In the case of `CC1(C)C=Cc2c(cc3oc(-c4ccc(O)cc4O)cc(=O)c3c2O)O1`, the Activity [10] is reported as “inactive” and the IC50 [1] is reported as 77.6 µM.
For `C=CC(C)(C)c1c(OC)cc(O)c2c(=O)c3ccc(O)c(O)c3oc12` [ISOCUDRANIAXANTHONE B], the IC50 [1] was 133 µM.
In the case of `C=CC(C)(C)c1c(O)cc(O)c2c(=O)c3c(CC=C(C)C)c(OC)c(O)cc3oc12` [CUDRAXANTHONE C], the Activity [12] is reported as “inactive” and the IC50 [1] is reported as 19.2 µM.
